Data set [1] in a line: Study II safety and tolerability evaluation (adverse events). In kind it is in vivo, human. Conditions: treatment of test (30 mg pelubiprofen tromethamine), 36 subjects evaluated, mild, 'not related'. How it is done:
In both Study I and II, the safety evaluation was performed on subjects administered with the investigational drug at least once. Any clinically significant findings in the interview, physical examination, vital signs, 12-lead electrocardiogram (ECG), the clinical laboratory test, etc., during the study period were collected as adverse events, which were subsequently evaluated for the incidence of serious adverse events, severity, causal relationship, etc. All relevant data were collected through monitoring by the investigator and voluntary reporting by the subjects. To collect additional data, interview and physical examination were performed where necessary. The investigator carried out the follow-up monitoring of the subjects with adverse events until the symptoms subsided and abnormal test values returned to a healthy baseline or until a satisfactory explanation for the observed change could be provided.

Details of data set [2]: method as in PMID 34070062. Conditions: non-clinical studies; cited from earlier work.
Data set [3] can be described thus: Study II (DW1809-103): pharmacokinetic analysis of plasma pelubiprofen (LC-MS/MS) after single oral dose. Here is the method:
In this study, the two independent clinical trials (Study I and II) were conducted using an identical randomized, open-label, oral, single-dose, fasted, two-sequence, four-period, crossover design. Due to the known pharmacokinetic characteristics of pelubiprofen with its large intra-subject variability, the replicated design was chosen to calculate the true intra-coefficient of variation in both studies. Study I tested 25 mg of pelubiprofen tromethamine (36.73 mg of pelubiprofen tromethamine salt; 25 mg of pelubiprofen, Daewon Pharmaceutical Co., Ltd., Seoul, Republic of Korea) against 30 mg of pelubiprofen (30.0 mg of pelubiprofen, Daewon Pharmaceutical Co., Ltd., Seoul, Republic of Korea) as the reference. Study II tested 30 mg of pelubiprofen tromethamine (44.07 mg of pelubiprofen tromethamine salt; 30 mg of pelubiprofen, Daewon Pharmaceutical Co., Ltd., Seoul, Republic of Korea) against 30 mg of pelubiprofen (30.0 mg of pelubiprofen, Daewon Pharmaceutical Co., Ltd., Seoul, Republic of Korea) as the reference. The target number of subjects in both Study I and II was set to N = 36 (N = 18 for each sequence group) (Figure 1, Table 1).
The subject screening in both Study I and Study II was performed in the four weeks ([…]) prior to the first administration (Day 1). […] In addition, the screened subjects fasted for at least 10 h, excluding drinking water, from approximately 10 p.m. until administration of the investigational drug. The randomization in both Study I and II led the subjects to receive oral administration of a single test or reference tablet with approximately 150 mL of water at each time point from approximately 8 a.m. at approximately 2 min intervals according to their numbers. The subjects in both Study I and II were prohibited from drinking water for an hour before and after the administration, except during drug administration. The post-administration blood sampling and tests were performed as scheduled. All subjects were provided with identical meals approximately 4 h after blood sampling. The subjects in both Study I and II received the blood sampling and tests for the pharmacokinetic (PK) evaluation approximately 8 h after administration. Then, they were discharged following the completion of the first period of the study.
To analyze the PK characteristics in both Study I and II, approximately 5 mL of blood was sampled before administration (0 h) and at the following time points after administration; 0.083 h (5 min), 0.167 h (10 min), 0.33 h (20 min), and 0.5, 0.75, 1, 1.5, 2, 2.5, 3, 3.5, 4, 6, and 8 h. Therefore, for each subject, the blood sampling was performed 15 times in each period, resulting in a total of 60 times. All four periods proceeded on the same schedule as the first period in both Study I and II. The wash-out period between each consecutive period was set to a minimum of four days. The subjects in both Study I and II, after completing all four periods, chose a day from Day 5 to Day 7 of the final administration in the four period for visiting the center to undergo post study visit.
The validation of the quantitative analysis of plasma pelubiprofen in this study was performed in accordance with the following guidelines: the Validation Protocol for Pelubiprofen Quantification, the domestic Standard Operating Procedure (SOP) for Bioanalyses, the Guideline of Bioanalytical Method Validation (MFDS, December 2013), and Bioanalytical Method Validation Guidance for Industry (USA FDA, 2018). The plasma pelubiprofen was pretreated using protein precipitation in a dark room at room temperature (15–25 °C) and under shielded light for the subsequent liquid chromatograph tandem mass spectrometry (LC-MS/MS) analysis. The tested items in the validation included the intra-batch and inter-batch accuracy, precision, selectivity, linearity, and stability.

On the set-up of data set [4]: method as in earlier work. Conditions: cited from earlier work.
Where [5] appears, read: Study II, 30 mg pelubiprofen tromethamine vs. 30 mg pelubiprofen.
Where [6] appears, read: Study II, healthy subjects, single oral 30 mg pelubiprofen tromethamine, fasted, N = 33, mean ± SD.

As usually defined, the CL/F is clearance divided by bioavailability, as obtained after extravascular dosing. Usually Cmax stands for the maximum level reached in the sampled fluid or tissue. For orientation: Vd/F means the volume of distribution divided by bioavailability. Usually half-life stands for the time needed for the level to fall by half in the phase considered. Read a high half-life as slow loss.

Regarding `CC(C(=O)O)c1ccc(/C=C2\CCCCC2=O)cc1` (centres unmarked) [Pelubiprofen Tromethamine, pelubiprofen tromethamine], the adverse events entry in data set [1] is on record as “one case of adverse events”. For the same molecule, in data set [2], the “solubility and absorption compared to pelubiprofen” value is “enhanced solubility and absorption”. Further, in data set [3] (setting [5]), the “increase of AUC0-t compared to the reference” value is listed as 24% and the “increase of Cmax compared to the reference” value amounted to 29%. In data set [3] (setting [6]), this molecule showed an AUC0-inf of 447.75 ± 123.40 ng·h/mL, an AUC0-t of 446.44 ± 123.33 ng·h/mL, a CL/F of 72.08 ± 19.97 L/h and a peak concentration (Cmax) of 770.01 ± 347.86 ng/mL. In data set [3] (setting [6]), this molecule returned a Vd/F of 94.56 ± 52.40 L and a t1/2 of 57 ± 33.6 min. Moreover, the Tmax in data set [3] (Study II, healthy subjects, single oral 30 mg pelubiprofen tromethamine, fasted, N = 33, median (minimum–maximum)) is 0.33 (0.17–2.50) h.

As for `CC(C(=O)O)c1ccc(/C=C2\CCCCC2=O)cc1` (centres unmarked) [Pelubiprofen, 2-[4-(oxocyclohexylidenemethyl)-phenyl] propionic acid], the protein binding rate entry in data set [4] is given as “high protein binding rate”. For the same molecule, the CL/F in data set [3] (Study II, healthy subjects, single oral 30 mg pelubiprofen (reference), fasted, N = 33, mean ± SD) stood at 90.55 ± 32.04 L/h. The “highest within-subject variability for Cmax” value in data set [3] (Study II, reference 30 mg pelubiprofen, fasting, four-period repeated crossover) was “approximately 58%”. Besides, in data set [3] (human, plasma, po, 30 mg), the AUC0-inf was 366 ± 108 ng·h/mL, the AUC0-t is 365 ± 108 ng·h/mL, the concentration peaked (Cmax) at 619 ± 336 ng/mL and the Tmax was 30 min. In data set [3] (human, plasma, po, 30 mg), this molecule gave a Vd/F of 119 ± 94.1 L and a half-life of 55.8 ± 41.4 min.

Source of the values: publication PMC10146281, “Pharmacokinetic and Pharmacodynamic Characteristics of Pelubiprofen Tromethamine vs. Pelubiprofen in Healthy Subjects” (Pharmaceutics, 2023).
